Data: patent US6849732B2, “Metalloproteinase inhibitors, pharmaceutical compositions containing them and their pharmaceutical uses, and methods and intermediates useful for their preparation” (Agouron Pharmaceuticals, Inc., priority 1995, dated 2005)
Structures can show the parent of a compound that is named as a salt.

Tests used:
Type in all cases: biochemical
gelatinase A (HG72kD) = molecular target: T1, gelatinase A (HG72kD) (Homo sapiens, UniProt P08253); experiment: MCA fluorogenic enzyme assay, competitive inhibition analysis (Ki,app), gelatinase A; conditions: MCA peptide substrate, 37° C., pH 7.5, read-out: Enzyme Inhibition Constants (K1) HG72kD
T1 sequence (P08253 110-660): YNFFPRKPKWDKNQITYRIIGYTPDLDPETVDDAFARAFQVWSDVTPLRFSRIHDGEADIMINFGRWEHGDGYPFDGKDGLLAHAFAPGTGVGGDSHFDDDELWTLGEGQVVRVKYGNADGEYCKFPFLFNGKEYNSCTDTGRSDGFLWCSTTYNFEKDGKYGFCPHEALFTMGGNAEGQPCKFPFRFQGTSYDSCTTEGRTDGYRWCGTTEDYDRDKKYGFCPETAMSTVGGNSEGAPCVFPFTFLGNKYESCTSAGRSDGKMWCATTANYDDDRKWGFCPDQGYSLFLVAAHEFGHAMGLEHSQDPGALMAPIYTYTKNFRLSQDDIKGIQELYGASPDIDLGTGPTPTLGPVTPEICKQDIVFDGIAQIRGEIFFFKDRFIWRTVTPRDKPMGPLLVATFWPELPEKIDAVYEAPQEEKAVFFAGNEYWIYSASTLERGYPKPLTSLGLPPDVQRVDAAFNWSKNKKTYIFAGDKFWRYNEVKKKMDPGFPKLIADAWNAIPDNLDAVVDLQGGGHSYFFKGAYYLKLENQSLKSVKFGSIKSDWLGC

Coll3 = Coll3 (Homo sapiens, UniProt P45452); experiment: MCA fluorogenic enzyme assay, competitive inhibition analysis (Ki,app), Coll3; conditions: MCA peptide substrate, 37° C., pH 7.5, read-out: Enzyme Inhibition Constants (K1) Coll3
stromelysin (HSLN) = stromelysin (HSLN) (Homo sapiens, UniProt P08254); experiment: MCA fluorogenic enzyme assay, competitive inhibition analysis (Ki,app), stromelysin; conditions: Ki,app; MCA peptide substrate, 37° C., pH 7.5; read-out: Enzyme Inhibition Constants (K1) HSLN
Sequence of stromelysin (HSLN) (P08254 100-477): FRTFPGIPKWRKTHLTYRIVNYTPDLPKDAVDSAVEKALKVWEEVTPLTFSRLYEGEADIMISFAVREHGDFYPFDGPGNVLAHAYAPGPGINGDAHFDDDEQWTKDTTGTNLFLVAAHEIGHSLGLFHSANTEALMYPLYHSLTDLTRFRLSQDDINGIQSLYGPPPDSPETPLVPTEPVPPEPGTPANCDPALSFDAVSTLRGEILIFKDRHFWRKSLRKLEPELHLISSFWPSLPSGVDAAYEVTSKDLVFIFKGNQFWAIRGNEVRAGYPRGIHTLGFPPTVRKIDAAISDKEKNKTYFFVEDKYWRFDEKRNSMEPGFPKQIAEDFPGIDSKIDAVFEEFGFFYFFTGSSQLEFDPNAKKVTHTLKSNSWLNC

HFC = molecular target: T2, HFC (Homo sapiens, UniProt P03956); experiment: MCA fluorogenic enzyme assay, competitive inhibition analysis (Ki,app), HFC; conditions: MCA peptide substrate, 37° C., pH 7.5, read-out: Enzyme Inhibition Constants (K1) HFC
T2 sequence (P03956 100-469): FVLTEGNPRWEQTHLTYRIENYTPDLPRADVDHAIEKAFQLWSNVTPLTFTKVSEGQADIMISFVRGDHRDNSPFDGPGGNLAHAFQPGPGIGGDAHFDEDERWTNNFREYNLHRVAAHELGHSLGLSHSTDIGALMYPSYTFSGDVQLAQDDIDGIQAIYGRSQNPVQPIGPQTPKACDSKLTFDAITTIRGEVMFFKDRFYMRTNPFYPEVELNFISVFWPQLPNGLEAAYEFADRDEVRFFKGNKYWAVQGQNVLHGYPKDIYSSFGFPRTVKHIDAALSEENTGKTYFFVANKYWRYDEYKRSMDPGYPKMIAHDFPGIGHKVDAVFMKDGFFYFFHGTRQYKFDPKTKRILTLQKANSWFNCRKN

matrilysin (Matr.) = molecular target: T3, matrilysin (Matr.) (Homo sapiens, UniProt P09237); experiment: MCA fluorogenic enzyme assay, competitive inhibition analysis (Ki,app), matrilysin; conditions: MCA peptide substrate, 37° C., pH 7.5, read-out: Enzyme Inhibition Constants (K1) Matr.
T3 sequence (P09237 95-267): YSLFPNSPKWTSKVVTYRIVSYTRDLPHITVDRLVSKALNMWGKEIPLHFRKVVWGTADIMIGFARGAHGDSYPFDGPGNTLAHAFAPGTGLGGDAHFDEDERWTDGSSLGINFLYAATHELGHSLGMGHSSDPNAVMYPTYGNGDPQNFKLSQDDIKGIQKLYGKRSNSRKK
Description: Stromelysin enzymatic activity was measured using a modified version of a resonance energy transfer fluorogenic assay as described in FEBS, vol. 296(3), p. 263 (1992), the disclosure of which is incorporated herein by reference. The MCA-peptide substrate is shown below. The fluorescent MCA group is quenched by resonance energy transfer to the 2,4-dinitrophenyl group. Matrix metalloproteinases cleave this substrate at the Gly-Leu bond. Cleavage results in the loss of energy transfer and a large increase in fluorescence of the MCA group. [drawing 56] 7-methoxycoumarin-4-yl-acetyl-pro-leu-gly-leu-3-(2,4-dinitrophenyl)-L-2,3-diaminoproprionyl-ala-arg-NH2
The MCA assay was performed at 37° C. in buffer containing 50 mM Tricine (pH 7.5), 10 mM CaCl2, 200 mM NaCl, and 1% DMSO with the following concentrations of matrix metalloproteinases: 1.4 nM stromelyin, 0.063 nM matrilysin, and 0.030 nM gelatinase A. The concentration of MCA substrate was 10 or 20 μM in a final volume of 1.6 mL. Fluorescence data was collected with Perkin-Elmer LS-5B and LS-5B spectrofluorimeters with λexcitation=328 nm and λemission=393 nm. Spectrofluorimeters were interfaced with IBM-compatible microcomputer systems.
The Km for the MCA peptide substrate with the matrix metalloproteinases is quite high and exceeds its solubility under assay conditions. Consequently, the apparent Ki (Ki,app) was determined to describe the strength of inhibition. However, in this case, Ki,app would be essentially equal to Ki since [S]<<Km. For the determination of Ki,app, the concentration of the inhibitor was varied at a constant and low concentration of substrate and the steady-state rates of fluorescence change determined. In most cases absorptive quench due to the presence of ligand was not observed. For slow-binding inhibitors, onset of inhibition curves were collected for at least 45 minutes so that equilibrium was established. Steady-state rates of fluorescence change were obtained by fitting a curve to an equation for a single exponential decay containing a linear phase. The fitted value of the linear phase was taken as the steady-state rate. The steady-state rates were fitted to the Michaelis equation describing competitive inhibition by non-linear methods. Data resulting from tight-binding inhibition was analyzed, and Ki,app determined by fitting the data to the tight-binding equation of Morrison See (Biochem. Biophys. Acta, vol. 185, pp. 269-286 (1969)) by non-linear methods.

Structure (SMILES)	Ki (gelatinase A (HG72kD)) [nM]	Ki (Coll3) [nM]	Ki (stromelysin (HSLN)) [nM]	Ki (HFC) [nM]	Ki (matrilysin (Matr.)) [nM]
CC1(C)[C@H](C(=O)NO)N(S(=O)(=O)c2ccc(Oc3ccc(Br)cc3)cc2)CC[S@@+]1[O-] [Example 17(a), 1(R),3(S)-N-hydroxy-4-(4-(4-bromophenoxy)benzenesulfonyl)-2,2-dimethyl-1-oxo-tetrahydro-2H-1,4-thiazine-3-carboxamide]	0.009	0.01	0.056	3.6	11
O=C(NO)C1C[S+]([O-])CCN1S(=O)(=O)c1ccc(Oc2ccc(F)cc2)cc1 (racemic) [Example 14(b), 1(R/S),3(R/S)-N-hydroxy-1-oxo-4-(4-(4-fluorophenoxy)benzene-sulfonyl)-tetrahydro-2H-1,4-thiazine-3-carboxamide]	0.034	0.016	0.79	28	306
O=C(NO)[C@H]1CNCCN1S(=O)(=O)c1ccc(Oc2ccc(Cl)cc2)cc1 [Example 10(a), 2(R)-N-hydroxy-1-(4-(4-chlorophenoxy)benzenesulfonyl)-piperazine-2-carboxamide hydrochloride]	0.413	0.363	1	34	171
CC1(C)[C@H](C(=O)NO)N(S(=O)(=O)c2ccc(Oc3ccncc3)cc2)CC[S@@+]1[O-] (single isomer, unassigned; isomer 1) [Example 19(a), 1(R), 3(S) isomer]	0.094	0.13	1.4	32	
CC(C)(C)OC(=O)N1CCN(S(=O)(=O)c2ccc(Oc3ccc(F)cc3)cc2)[C@@H](C(=O)NO)C1 [Example 9(b), 2(R)-N-hydroxy-1-(4-(4-fluorophenoxy)benzenesulfonyl)-4-(t-butoxycarbonyl)-piperazine-2-carboxamide]	0.026		0.49	18	220
O=C(NO)C1CSCCN1S(=O)(=O)c1ccc(Oc2ccc(F)cc2)cc1 (racemic) [Example 13(c), 3(R/S)-N-hydroxy-4-(4-(4-fluorophenoxy)benzenesulfonyl)-tetrahydro-2H-1,4-thiazine-3-carboxamide]	0.028	0.035	0.53	40	313
CNC(=O)N1CCN(S(=O)(=O)c2ccc(Oc3ccc(Cl)cc3)cc2)C(C(=O)NO)C1 (racemic) [Example 6(a), 2(R/S)-N-hydroxy-1-(4-(4-chlorophenoxy)benzenesulfonyl)-4-(N-methylcarbamoyl)-piperazine-2-carboxamide]	0.034	0.016	0.406		109
COc1ccc(Oc2ccc(S(=O)(=O)N3CCN(S(C)(=O)=O)CC3C(=O)NO)cc2)cc1 (racemic) [Example 12(c)]			0.19	16	74
CC(=O)N1CCCN(S(=O)(=O)c2ccc(Oc3ccc(F)cc3)cc2)C1C(=O)NO (racemic) [Example 22, 2(R/S)-3-acetyl-1-4-(4-fluorophenoxy)benzenesulfonyl-N-hydroxy-hexahydropyrimidine-2-carboxamide]	0.077	0.088	4.4		
CC1(C)[C@H](C(=O)NO)N(S(=O)(=O)c2ccc(Oc3ccncc3)cc2)CC[S@+]1[O-] [Example 19(a), 1(S), 3(S) isomer, 1(S), 3(S)-N-hydroxy-4-(4-((pyrid-4-yl)oxy)benzenesulfonyl)-2,2-dimethyl-1-oxotetrahydro-2H-1,4-thiazine-3-carboxamide]	0.49	0.16	2.3	31	
O=C(NO)C1CSCCN1S(=O)(=O)c1ccc(Oc2ccc(Br)cc2)cc1 (racemic) [Example 13(a), 3(R/S)-N-hydroxy4-(4-bromophenoxybenzenesulfonyl)-tetrahydro-2H-1,4-thiazine-3-carboxamide]	0.04		0.333		169
CC1(C)SCCN(S(=O)(=O)c2ccc(Oc3ccc(Cl)cc3)cc2)[C@H]1C(=O)NO [Example 3(b), 3(S)-N-hydroxy4-(4-(4-chlorophenoxy)benzenesulfonyl)-2,2-dimethyl-tetrahydro-2H-1,4-thiazine-3-carboxamide]	0.017	0.001	0.059	1.3	
CCOC(=O)CN1CCN(S(=O)(=O)c2ccc(Oc3ccc(Cl)cc3)cc2)[C@@H](C(=O)NO)C1 [Example 11(c), 2(R)-N-hydroxy-1-(4-(4-chlorophenoxy)benzenesulfonyl)-4-(ethoxycarbonylmethyl)-piperazine-2-carboxamide hydrochloride]			0.25	48	240
CC1(C)NC(=O)CN(S(=O)(=O)c2ccc(Oc3ccc(F)cc3)cc2)C1C(=O)NO (racemic) [Example 21, 2(R/S)-1-[4-(4-fluorophenoxy)benzenesulfonyl]-3,3-dimethyl-N-hydroxy-5-oxo-piperazine-2-carboxamide]	0.066	0.068	0.84	5.9	
CS(=O)(=O)N1CCN(S(=O)(=O)c2ccc(Oc3ccc(F)cc3)cc2)[C@@H](C(=O)NO)C1 [Example 12(b)]	0.007	0.005	0.13	4.7	52
O=C1C[C@H](C(=O)NO)N(S(=O)(=O)c2ccc(Oc3ccc(F)cc3)cc2)CN1 [Example 15(b), 6(R)-(N-hydroxycarbamoyl)-1-(4-(4-fluorophenoxy)benzene-sulfonyl)-tetrahydropyrimidin-4-one]	0.152		5.1	187	1840
O=C(NO)C1CSCCN1S(=O)(=O)c1ccc(Oc2ccccc2)cc1 (racemic) [Example 13(b), 3(R/S)-N-hydroxy-4-(4-phenoxybenzenesulfonyl)-tetrahydro-2H-1,4-thiazine-3-carboxamide]	0.025	0.029	0.647		201
CN1CCN(S(=O)(=O)c2ccc(Oc3ccccc3)cc2)[C@@H](C(=O)NO)C1 [Example 11(b), 2(R)-N-hydroxy-1-(4-phenoxybenzenesulfonyl)-4-methyl-piperazine-2-carboxamide]	0.101	0.158	6.3		2180
